Experiments:
[1] = test system: chemotherapy-induced toxicities; conditions: human, in vivo
[2] = test system: NSCLC adenocarcinoma patients
[3] = test system: female adenocarcinoma patients; conditions: double-blind, placebo-controlled trial, Japan

## disodium 2′-dithio-bis-ethane
[1]
  anemia: reduced anemia
  chemotherapy-induced kidney toxicity: protection against chemotherapy-induced kidney toxicity
  neuropathy and other chemotherapy-induced toxicities: protect against neuropathy & other chemotherapy-induced toxicities
[2]; all genders and smoking status groups
  survival in all genders and smoking status groups: marginally increased survival
[2]; background statement
  clinical efficacy endpoints and subgroup responses: did not meet clinical efficacy endpoints
[2]; female non-smokers, increase from 13 months
  survival in female non-smokers: 25 months
[2]; females non-smokers
  percentage of patients undergoing treatment failure (FIG. 3): the least
[2]; females with advanced adenocarcinoma of the lung receiving paclitaxel/cisplatin
  2-year survival: 51.4%
[2]; females with advanced adenocarcinoma of the lung receiving paclitaxel/cisplatin, subgroup of 114 female patients, retrospective analysis
  overall survival: 25.0 months
[2]; females, non-smokers and female non-smokers receiving Cisplatin/Paclitaxel
  overall survival benefit (FIG. 1): remarkable survival benefit
[2]; non-smokers
  percentage of patients undergoing treatment failure (FIG. 2): the least
[2]; subgroup of 114 female patients, retrospective analysis, p-value=0.0477
  HR (overall survival): 0.579
[3]
  survival result in female adenocarcinoma patients: Consistent statistically significant results

— US20220168258A1, “METHOD FOR TREATING FEMALE NON-SMOKERS WITH NON-SMALL CELL LUNG CANCER” (Lantern Pharma Inc., priority 2019, published 2022)
